From US20260297095A1, “NOVEL PYRROLOTRIAZINE DERIVATIVE AND USE THEREOF” (Pelemed Co., Ltd., priority 2024, published 2026)
pIC50: −log10 of the molar value.

How the values were obtained:
[1] = tested on: KYSE-70 esophageal cancer cell line; assay: Cell growth inhibition of KYSE-70 (Sulforhodamine B); type: cell-based; conditions: Homo sapiens; KYSE-70, 72 hours; read-out: KYSE70 GI50
Outline: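 KYSE-70 cells (YES1-amplified) in RPMI-1640 with 10% FBS were seeded 24 h before treatment with compound at 0.0046–10 µM final. After 72 h, cells were TCA-fixed and stained with sulforhodamine B, with absorbance read at 510 nm. GI50 was derived with a time-zero plate set to 0% and the vehicle control to 100%, in duplicate tests.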

YES1 kinase = YES1 kinase (Homo sapiens, UniProt P07947); assay: YES1 kinase inhibition, ADP Glo assay (Promega); type: biochemical; conditions: for inhibition at 0.01 µM: compound 10 nM, read-out: YES1 enzyme, % inhibition, 10 nM; for inhibition at 0.1 µM: compound 100 nM, read-out: YES1 enzyme, % inhibition, 100 nM; for YES1 kinase inhibition at 1 nM (in words) / inhibition at 0.001 µM: compound 1 nM; for inhibition at 0.001 µM: read-out: YES1 enzyme, % inhibition, 1 nM; for pIC50: class symbols, read-out: YES1 enzyme, IC50
Chain of YES1 kinase (P07947 whole entry): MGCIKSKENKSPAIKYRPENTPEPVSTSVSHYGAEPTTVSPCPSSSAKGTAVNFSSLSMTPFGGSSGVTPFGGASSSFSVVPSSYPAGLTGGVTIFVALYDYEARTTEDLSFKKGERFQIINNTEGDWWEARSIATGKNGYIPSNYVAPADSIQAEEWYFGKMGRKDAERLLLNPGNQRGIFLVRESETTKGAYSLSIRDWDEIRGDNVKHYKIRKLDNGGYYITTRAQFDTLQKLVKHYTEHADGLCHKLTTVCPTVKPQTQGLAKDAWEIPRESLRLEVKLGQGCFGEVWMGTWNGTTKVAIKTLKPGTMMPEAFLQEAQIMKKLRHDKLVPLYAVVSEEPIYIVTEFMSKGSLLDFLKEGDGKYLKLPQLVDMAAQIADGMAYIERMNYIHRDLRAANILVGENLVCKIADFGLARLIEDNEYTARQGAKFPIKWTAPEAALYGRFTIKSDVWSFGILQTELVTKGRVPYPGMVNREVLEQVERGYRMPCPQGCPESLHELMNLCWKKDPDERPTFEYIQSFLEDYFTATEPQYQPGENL
Outline: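 ADP-Glo luminescence after a 40 min room-temperature reaction of YES1 with ATP and substrate (buffer with MnCl2 and DTT; 10 min compound preincubation) was used as readout. Percent inhibition at 1, 10 and 100 nM compound was calculated relative to negative control after background subtraction, and IC50 values derived.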

SMILES | GI50 [1] | inhibition at 0.01 µM (YES1 kinase) | inhibition at 0.1 µM (YES1 kinase) | inhibition at 0.001 µM (YES1 kinase) | pIC50 (YES1 kinase) | YES1 kinase inhibition at 1 nM (in words) (YES1 kinase)
COc1cc(-c2cc(N3CC4(CCN(C)C4)C3)n3ncnc(N)c23)ccc1NC(=O)OC(C)(C)C [Example 39, tert-butyl (4-(4-amino-7-(6-methyl-2,6-diazaspiro[3.4]octan-2-yl)pyrrolo[2,1-f][1,2,4]triazin-5-yl)-2-methoxyphenyl)carbamate] | ≤ 100 nM | 57% | 89% | – | – | –
COc1cc(-c2cc(N[C@H]3CC[C@H](N(C)C)C3)n3ncnc(N)c23)ccc1NC(=O)OC(C)(C)C [Example 112, tert-butyl (4-(4-amino-7-(((1S,3S)-3-(dimethylamino)cyclopentyl)amino)pyrrolo[2,1-f][1,2,4]triazin-5-yl)-2-methoxyphenyl)carbamate] | 100 to 1000 nM | 60% | – | 29% | – | could be inhibited even at a low concentration of 1 nM
COc1cc(-c2cc(N3CC[C@@H](N)[C@@H](F)C3)n3ncnc(N)c23)ccc1NC(=O)OC(C)(C)C [Example 46, tert-butyl (4-(4-amino-7-((3S,4R)-4-amino-3-fluoropiperidin-1-yl)pyrrolo[2,1-f][1,2,4]triazin-5-yl)-2-methoxyphenyl)carbamate] | 100 to 1000 nM | 52% | 77% | – | – | –
COc1cc(-c2cc(CCN3CCC(N)CC3)n3ncnc(N)c23)ccc1NC(=O)OC(C)(C)C [Example 100, tert-butyl (4-(4-amino-7-(2-(4-aminopiperidin-1-yl)ethyl)pyrrolo[2,1-f][1,2,4]triazin-5-yl)-2-methoxyphenyl)carbamate] | ≤ 100 nM | 70% | 88% | – | – | –
CNCCC1CCN(c2cc(-c3ccc(NC(=O)OC(C)(C)C)c(OC)c3)c3c(N)ncnn23)CC1 [Example 108, tert-butyl (4-(4-amino-7-(4-(2-(methylamino)ethyl)piperidin-1-yl)pyrrolo[2,1-f][1,2,4]triazin-5-yl)-2-methoxyphenyl)carbamate] | ≤ 100 nM | 52% | – | 38% | ≥ 7.00 | –
COc1cc(-c2cc(N3CCC(C(=O)O)CC3)n3ncnc(N)c23)ccc1NC(=O)OC(C)(C)C [Example 89, 1-(4-amino-5-(4-((tert-butoxycarbonyl)amino)-3-methoxyphenyl)pyrrolo[2,1-f][1,2,4]triazin-7-yl)piperidine-4-carboxylic acid] | > 10000 nM | 34% | – | 19% | – | could be inhibited even at a low concentration of 1 nM
COc1cc(-c2c(F)c(N3CCC(N(C)C)CC3)n3ncnc(N)c23)ccc1NC(=O)OC(C)(C)C [Example 128, tert-butyl (4-(4-amino-7-(4-(dimethylamino)piperidin-1-yl)-6-fluoropyrrolo[2,1-f][1,2,4]triazin-5-yl)-2-methoxyphenyl)carbamate] | ≤ 100 nM | 72% | 92% | – | ≥ 7.00 | –
Nc1ncnn2c(N3CCC(N)CC3)cc(-c3ccc(Oc4ccccc4)cc3)c12 [Example 135, 7-(4-aminopiperidin-1-yl)-5-(4-phenoxyphenyl)pyrrolo[2,1-f][1,2,4]triazin-4-amine] | ≤ 100 nM | 62% | 87% | – | – | –
COc1cc(-c2cc(CCN3CCC(N(C)C)CC3)n3ncnc(N)c23)ccc1NC(=O)OC(C)(C)C [Example 98, tert-butyl (4-(4-amino-7-(2-(4-(dimethylamino)piperidin-1-yl)ethyl)pyrrolo[2,1-f][1,2,4]triazin-5-yl)-2-methoxyphenyl)carbamate] | ≤ 100 nM | 65% | 90% | – | – | –
COc1cc(-c2cc(N3CCC(CO)CC3)n3ncnc(N)c23)ccc1NC(=O)OC(C)(C)C [Example 102, tert-butyl (4-(4-amino-7-(4-(hydroxymethyl)piperidin-1-yl)pyrrolo[2,1-f][1,2,4]triazin-5-yl)-2-methoxyphenyl)carbamate] | 100 to 1000 nM | 39% | – | 11% | – | could be inhibited even at a low concentration of 1 nM
COc1cc(-c2cc(NC3CCNCC3)n3ncnc(N)c23)ccc1NC(=O)OC(C)(C)C [Example 120, tert-butyl (4-(4-amino-7-(piperidin-4-ylamino)pyrrolo[2,1-f][1,2,4]triazin-5-yl)-2-methoxyphenyl)carbamate] | 100 to 1000 nM | 40% | 78% | – | – | –
COc1cc(-c2cc(N3CC[C@H](N(C)C)C3)n3ncnc(N)c23)ccc1NC(=O)OC(C)(C)C [Example 11, tert-butyl (S)-(4-(4-amino-7-(3-(dimethylamino)pyrrolidin-1-yl)pyrrolo[2,1-f][1,2,4]triazin-5-yl)-2-methoxyphenyl)carbamate] | 100 to 1000 nM | 21% | 44% | – | – | –

Second part, led by results:

GI50 [1] | inhibition at 0.01 µM (YES1 kinase) | inhibition at 0.1 µM (YES1 kinase) | inhibition at 0.001 µM (YES1 kinase) | pIC50 (YES1 kinase) | SMILES | YES1 kinase inhibition at 1 nM (in words) (YES1 kinase)
1000 to 10000 nM | 28% | 49% | – | – | COc1cc(-c2cc(-c3ccc4c(c3)OCCN4C)n3ncnc(N)c23)ccc1NC(=O)OC(C)(C)C [Example 7, tert-butyl (4-(4-amino-7-(4-methyl-3,4-dihydro-2H-benzo[b][1,4]oxazin-7-yl)pyrrolo[2,1-f][1,2,4]triazin-5-yl)-2-methoxyphenyl)carbamate] | –
1000 to 10000 nM | 17% | 31% | – | – | COc1cc(-c2cc(-c3ccc(N(C)C)cc3)n3ncnc(N)c23)ccc1NC(=O)OC(C)(C)C [Example 1, tert-butyl (4-(4-amino-7-(4-(dimethylamino)phenyl)pyrrolo[2,1-f][1,2,4]triazin-5-yl)-2-methoxyphenyl)carbamate] | –
100 to 1000 nM | 50% | 77% | – | – | COc1cc(-c2cc(N[C@H]3CC[C@@H](N)CC3)n3ncnc(N)c23)ccc1NC(=O)OC(C)(C)C [Example 121, tert-butyl (4-(4-amino-7-(((1s,4s)-4-aminocyclohexyl)amino)pyrrolo[2,1-f][1,2,4]triazin-5-yl)-2-methoxyphenyl)carbamate] | –
100 to 1000 nM | 52% | – | 38% | ≥ 7.00 | COc1cc(-c2cc(N3CCC(CCN)CC3)n3ncnc(N)c23)ccc1NC(=O)OC(C)(C)C [Example 107, tert-butyl (4-(4-amino-7-(4-(2-aminoethyl)piperidin-1-yl)pyrrolo[2,1-f][1,2,4]triazin-5-yl)-2-methoxyphenyl)carbamate] | –
1000 to 10000 nM | 59% | 74% | – | – | COc1cc(-c2cc(N3CCC4(CC3)CC(=O)N(C)C4)n3ncnc(N)c23)ccc1NC(=O)OC(C)(C)C [Example 27, tert-butyl (4-(4-amino-7-(2-methyl-3-oxo-2,8-diazaspiro[4.5]decan-8-yl)pyrrolo[2,1-f][1,2,4]triazin-5-yl)-2-methoxyphenyl)carbamate] | –
100 to 1000 nM | 36% | 70% | – | – | COc1cc(-c2cc(N3CCC(CN(C)C)C3)n3ncnc(N)c23)ccc1NC(=O)OC(C)(C)C (stereo not shown) [Example 20, tert-butyl (4-(4-amino-7-(3-((dimethylamino)methyl)pyrrolidin-1-yl)pyrrolo[2,1-f][1,2,4]triazin-5-yl)-2-methoxyphenyl)carbamate] | –
100 to 1000 nM | 47% | – | 12% | – | COc1cc(-c2cc(N3CCC(O)CC3)n3ncnc(N)c23)ccc1NC(=O)OC(C)(C)C [Example 90, tert-butyl (4-(4-amino-7-(4-hydroxypiperidin-1-yl)pyrrolo[2,1-f][1,2,4]triazin-5-yl)-2-methoxyphenyl)carbamate] | could be inhibited even at a low concentration of 1 nM
100 to 1000 nM | 36% | 78% | – | – | COc1cc(-c2cc(N3CCC4(CCN(C)CC4)C3)n3ncnc(N)c23)ccc1NC(=O)OC(C)(C)C [Example 36, tert-butyl (4-(4-amino-7-(8-methyl-2,8-diazaspiro[4.5]decan-2-yl)pyrrolo[2,1-f][1,2,4]triazin-5-yl)-2-methoxyphenyl)carbamate] | –
≤ 100 nM | 70% | 92% | – | ≥ 7.00 | CNC1CCN(c2c(F)c(-c3ccc(NC(=O)OC(C)(C)C)c(OC)c3)c3c(N)ncnn23)CC1 [Example 129, tert-butyl (4-(4-amino-6-fluoro-7-(4-(methylamino)piperidin-1-yl)pyrrolo[2,1-f][1,2,4]triazin-5-yl)-2-methoxyphenyl)carbamate] | –
100 to 1000 nM | – | – | – | ≥ 7.00 | COc1cc(-c2cc(N3CCC(N)CC3)n3ncnc(N)c23)ccc1NC(=O)c1ccco1 [Example 137, N-(4-(4-amino-7-(4-aminopiperidin-1-yl)pyrrolo[2,1-f][1,2,4]triazin-5-yl)-2-methoxyphenyl)furan-2-carboxamide] | –
> 10000 nM | 28% | 47% | – | – | COCCN1CCN(c2cc(-c3ccc(NC(=O)OC(C)(C)C)c(OC)c3)c3c(N)ncnn23)CC1 [Example 29, tert-butyl (4-(4-amino-7-(4-(2-methoxyethyl)piperazin-1-yl)pyrrolo[2,1-f][1,2,4]triazin-5-yl)-2-methoxyphenyl)carbamate] | –
